Primed or numbered codes have the meaning given here. No end group written: not given here. PEG8′ = PEG8 linker (eight-unit polyethylene glycol spacer); FAM = fluorescein amidite
What was measured:
[1] = tested on: A549 cells; assay: Intracellular delivery of Alexa 647-labeled IgG-peptide conjugates to A549 cells; type: cell-based; conditions: for cell-type-selective plasma membrane-penetrating activity: A549 cells versus macrophages, 1 µM, FIG. 16; for intracellularly delivered amount into A549 cells: final concentration 1 µM, uptake time 1 h, compared with T001, T006 conjugates, FIG. 15
Protocol: Cells 1 hour after the addition of the protein solution were observed and photographed with an all-in-one fluorescence microscope BZ-X810 (Keyence Corporation) in the same manner as in Experimental Example 14 except that A549 cells cultured in the same manner as in Experimental Example 11 were used, followed by image analysis with software BZ-X800 Analyzer included therein. The uptake ratios of the proteins at an uptake time of 1 hour, which were each determined from the ratio of the brightness (integrated) of a red color to the brightness (integrated) of a blue color, were compared to each other. The results are shown in FIG. 15 (in the figure, the height of a bar represents the average of "n" values (n=2 to 3) and an error bar represents its standard deviation).

[2] = tested on: THP-1 macrophages; assay: Intracellular delivery of Alexa 647-labeled IgG-peptide conjugates to THP-1 macrophages; type: cell-based; conditions: for intracellular delivery amount of IgG: final concentration 5 µM, versus IgG, FIG. 12, FIG. 13; for intracellular delivery amount of IgG / intracellularly delivered amount into macrophages: uptake time 1 h; for intracellularly delivered amount into macrophages: final concentration 1 µM, compared with R001, R005 conjugates, FIG. 14; for cell-type-selective plasma membrane-penetrating activity: macrophages versus A549 cells, 1 µM, FIG. 16
From the text: The reaction liquid was applied to a Zeba spin desalting column (7K MWCO) equilibrated with PBS, and an unreacted cross-linking agent was removed. Thus, an IgG fraction was recovered. The peptides (synthesized by Eurofins Genomics K.K., the amino acid sequences of the peptides that are each conjugated with the IgG are shown in the following table) obtained by the above-mentioned screening, the peptides each including an amino acid sequence and each having C at its N-terminal, were each dissolved in DMSO so that a 10 mM DMSO solution was obtained. The DMSO solution of the peptide whose molar amount was 5 times as large as that of the IgG was added to the recovered IgG fraction, and EDTA was further added to the mixture so that its final concentration was 1 mM, followed by stirring by inversion at 25°C for 1 hour. After that, a fivefold molar amount of cysteine was added to the mixture, and the whole was stirred by inversion at 25°C for 30 minutes. The reaction liquid was applied to a Zeba spin desalting column (7K MWCO) equilibrated with PBS, and the peptide and cysteine that were unreacted, and EDTA were removed. Thus, an IgG-peptide conjugate was recovered.
The assay was conducted using THP-1 macrophages, which had been seeded in a 96-well plate at 20,000 cells/well, and had already been activated with PMA, IFN γ, and LPS. […] Images acquired with the all-in-one fluorescence microscope BZ-X810 (Keyence Corporation) were analyzed using the accompanying software BZ-X800 Analyzer. The uptake ratio at an uptake time of 1 h was compared based on the ratio of integrated red fluorescence intensity to integrated blue fluorescence intensity.
The uptake ratios of the proteins at an uptake time of 1 hour, which were each determined from the ratio of the brightness (integrated) of a red color to the brightness (integrated) of a blue color, were compared to each other.

[3] = tested on: three-dimensional skin model EpiDerm Full Thickness 400
Protocol: A three-dimensional skin model EpiDerm Full Thickness 400 was prepared in accordance with the manual of its manufacturer in the same manner as in Experimental Example 8. […] As a control, the known cell-penetrating peptide TAT (the sequence obtained by removing C at the N-terminal from the amino acid sequence shown in SEQ ID NO: 51) was used, and the N-terminal side thereof was modified with FAM (similarly synthesized by Eurofins Genomics K.K., theoretical molecular weight: 1,979.2).
100 Microliters of a 1% DMSO-containing PBS solution of each of the FAM-modified peptides was added to a central portion on the donor side of a cup in which the skin model was built to initiate the penetrability assay (n=3). After incubation at 37 °C under 5% CO2 for 24 h, the medium outside the cup was collected, and the concentration of peptide that penetrated the skin model was quantified fluorometrically using a microplate reader (TECAN Spark; excitation wavelength: 494 nm, emission wavelength: 521 nm).

Which results are given for CGGSRVVSYLAEYH [R005]?
cell-type-selective plasma membrane-penetrating activity [1]: cell-type-selective plasma membrane-penetrating activity in A549 cells; intracellularly delivered amount into A549 cells [1]: greater increase in the intracellularly delivered amount into A549 cells

For CGKEGGSRWLIFHYMLLGG [T005], which “intracellular delivery amount of IgG” value [2] is on record?
The value was “increased the intracellular delivery amount of IgG”.

How did the “cell-type-selective plasma membrane-penetrating activity” value [1] turn out when CLFKAWLGVYH [R001] was run?
The value was “cell-type-selective plasma membrane-penetrating activity in A549 cells”.

What about the “intracellularly delivered amount into A549 cells” value [1] of the same substance?
The value was “greater increase in the intracellularly delivered amount into A549 cells”.

CRWPLWMWFVW [T001] was tested. Which “intracellularly delivered amount into macrophages” value [2] did it give?
Its value is “greater increase in the intracellularly delivered amount into macrophages”.

And the “intracellular delivery amount of IgG” value [2]?
The value was “increased the intracellular delivery amount of IgG”.

What about the “cell-type-selective plasma membrane-penetrating activity” value [2] of the same substance?
Its value is “cell-type-selective plasma membrane-penetrating activity in macrophages”.

How did the “intracellularly delivered amount into macrophages” value [2] turn out when CRYYAHWLHYM [T006] was run?
The value was “greater increase in the intracellularly delivered amount into macrophages”.

What about the “intracellular delivery amount of IgG” value [2] of the same substance?
The value was “increased the intracellular delivery amount of IgG”.

What about the “cell-type-selective plasma membrane-penetrating activity” value [2] of the same substance?
The value was “cell-type-selective plasma membrane-penetrating activity in macrophages”.

With “CYGRKKRRQRRR (CYGRKKRRQRRR-NH2; also: conjugated to Alexa 647-IgG via maleimide-PEG2-NHS) [TAT, Alexa 647-labeled IgG bonded with known membrane-permeable peptide TAT via Maleimide-PEG2-NHS Ester, reference compound]” as the substance, how does the “intracellular delivery amount of IgG” value [2] read?
Its value is “no increase in cellular translocation was observed”.

Which “penetrability (ratio of penetrated amount outside the cup to added amount)” value [3] does the source give for “FAM-labeled SEQ ID NO: 40 peptide: N-terminal side of the peptide represented by SEQ ID NO: 40 modified with fluorescein amidite (FAM) through a PEG8 linker ({FAM-PEG8′}-RWNCVSCAFL; cysteine pairing not given here)” here?
Its value is 49.8±10.0%.

From EP4741414A1, “PEPTIDE HAVING CELL MEMBRANE PERMEABILITY AND SCREENING METHOD THEREFOR” (priority 2023, dated 2025)
